Source: patent US8822517B2, “Arylosulfonamides for the treatment of CNS diseases” (Adamed SP. Z O.O., priority 2010, dated 2014)

How the values were obtained:
dopaminergic D2 receptor = dopaminergic D2 receptor (Homo sapiens, UniProt P14416); experiment: Binding assay D2S (h), [3H]methyl-spiperone, HEK-293 cells; parameters: expressed in transfected cells; host or cells: HEK-293 cells; conditions: read-out: D2 [%]
Outline: (§1)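 At 1×10^−6 M, compounds were assessed for their effect on specific radioligand binding, computed as total less nonspecific binding (excess unlabelled ligand present).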

[1] = molecular target: serotoninergic 5-HT7 receptor (Homo sapiens, UniProt P34969); experiment: Binding assay 5-HT7 (h), [3H]LSD, CHO cells; parameters: expressed in transfected cells; host or cells: CHO cells; conditions: read-out: 5-HT7
Chain of serotoninergic 5-HT7 receptor (P34969 whole entry): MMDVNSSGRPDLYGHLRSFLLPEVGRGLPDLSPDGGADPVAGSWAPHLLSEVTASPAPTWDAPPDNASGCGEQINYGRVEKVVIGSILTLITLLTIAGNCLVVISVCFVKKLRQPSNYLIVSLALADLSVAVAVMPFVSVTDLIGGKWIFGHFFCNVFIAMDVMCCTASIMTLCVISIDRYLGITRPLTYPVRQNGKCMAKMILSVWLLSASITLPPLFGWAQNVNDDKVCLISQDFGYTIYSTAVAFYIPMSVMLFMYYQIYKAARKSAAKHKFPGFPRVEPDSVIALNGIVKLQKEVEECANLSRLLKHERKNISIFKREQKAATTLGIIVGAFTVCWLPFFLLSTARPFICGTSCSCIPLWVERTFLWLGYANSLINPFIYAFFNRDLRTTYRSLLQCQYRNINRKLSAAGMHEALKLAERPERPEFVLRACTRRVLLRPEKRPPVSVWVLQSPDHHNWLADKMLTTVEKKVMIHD
Outline: as §1

dopaminergic D3 receptor = dopaminergic D3 receptor (Homo sapiens, UniProt P35462); experiment: Binding assay D3 (h), [3H]methyl-spiperone, CHO cells; parameters: expressed in transfected cells; host or cells: CHO cells; conditions: read-out: D3 [%]
Chain of dopaminergic D3 receptor (P35462 whole entry): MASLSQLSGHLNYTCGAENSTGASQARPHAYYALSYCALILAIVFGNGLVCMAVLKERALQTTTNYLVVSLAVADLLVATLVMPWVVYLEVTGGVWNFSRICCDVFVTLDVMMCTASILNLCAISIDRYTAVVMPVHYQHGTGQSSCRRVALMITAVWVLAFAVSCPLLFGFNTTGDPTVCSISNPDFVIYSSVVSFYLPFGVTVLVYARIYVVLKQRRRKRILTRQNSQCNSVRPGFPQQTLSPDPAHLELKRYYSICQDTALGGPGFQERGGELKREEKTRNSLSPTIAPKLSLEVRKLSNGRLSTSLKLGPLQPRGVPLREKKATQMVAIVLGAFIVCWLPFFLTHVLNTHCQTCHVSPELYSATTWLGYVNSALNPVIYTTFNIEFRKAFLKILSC
Outline: as §1

[2] = molecular target: T1, serotonine transporter (SERT) receptor (Homo sapiens, UniProt P31645); experiment: Binding assay SERT (h), [3H]imipramine, CHO cells; conditions: read-out: SERT [%]
T1 construct: expressed in transfected cells; host or cells: CHO cells
T1 sequence (P31645 whole entry): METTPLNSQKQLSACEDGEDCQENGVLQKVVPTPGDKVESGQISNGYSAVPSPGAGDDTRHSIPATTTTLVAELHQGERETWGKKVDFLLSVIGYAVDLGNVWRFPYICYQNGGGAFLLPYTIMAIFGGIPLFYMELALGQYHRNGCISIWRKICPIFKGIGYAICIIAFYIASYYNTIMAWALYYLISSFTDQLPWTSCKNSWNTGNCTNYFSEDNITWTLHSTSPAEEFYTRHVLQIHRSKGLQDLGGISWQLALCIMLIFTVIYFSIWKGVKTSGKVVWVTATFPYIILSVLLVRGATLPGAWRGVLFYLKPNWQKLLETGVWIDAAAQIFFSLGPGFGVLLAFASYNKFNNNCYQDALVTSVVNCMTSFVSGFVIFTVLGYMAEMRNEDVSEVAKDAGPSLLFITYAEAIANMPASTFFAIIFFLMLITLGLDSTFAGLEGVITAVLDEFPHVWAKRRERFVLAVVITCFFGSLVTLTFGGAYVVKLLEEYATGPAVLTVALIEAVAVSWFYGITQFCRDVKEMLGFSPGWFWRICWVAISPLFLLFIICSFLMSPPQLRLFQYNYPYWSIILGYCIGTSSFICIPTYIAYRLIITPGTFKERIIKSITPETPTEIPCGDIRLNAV
Outline: as §1

[3] = molecular target: serotoninergic 5-HT6 receptor (Homo sapiens, UniProt P50406); experiment: Binding assay 5-HT6 (h), [3H]LSD, CHO cells; parameters: expressed in transfected cells; host or cells: CHO cells; conditions: read-out: 5-HT6
Chain of serotoninergic 5-HT6 receptor (P50406 whole entry): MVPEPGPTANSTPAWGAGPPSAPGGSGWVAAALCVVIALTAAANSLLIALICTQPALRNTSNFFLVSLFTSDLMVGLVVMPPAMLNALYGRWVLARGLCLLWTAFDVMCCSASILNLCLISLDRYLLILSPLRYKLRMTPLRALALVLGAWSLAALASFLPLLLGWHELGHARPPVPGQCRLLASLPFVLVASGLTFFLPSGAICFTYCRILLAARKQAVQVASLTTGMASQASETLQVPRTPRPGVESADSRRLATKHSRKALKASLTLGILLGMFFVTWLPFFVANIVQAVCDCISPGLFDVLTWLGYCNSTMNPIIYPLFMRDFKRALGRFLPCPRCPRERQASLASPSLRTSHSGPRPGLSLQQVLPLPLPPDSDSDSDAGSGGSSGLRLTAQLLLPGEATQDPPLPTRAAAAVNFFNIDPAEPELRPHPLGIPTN
Outline: as §1

[4] = molecular target: T2, serotoninergic 5-HT1A receptor (Homo sapiens, UniProt P08908); experiment: Binding assay 5-HT1A (h), [3H]8-OH-DPAT, HEK-293 cells; parameters: expressed in transfected cells; host or cells: HEK-293 cells; conditions: read-out: 5-HT1A
T2 sequence (P08908 1-422): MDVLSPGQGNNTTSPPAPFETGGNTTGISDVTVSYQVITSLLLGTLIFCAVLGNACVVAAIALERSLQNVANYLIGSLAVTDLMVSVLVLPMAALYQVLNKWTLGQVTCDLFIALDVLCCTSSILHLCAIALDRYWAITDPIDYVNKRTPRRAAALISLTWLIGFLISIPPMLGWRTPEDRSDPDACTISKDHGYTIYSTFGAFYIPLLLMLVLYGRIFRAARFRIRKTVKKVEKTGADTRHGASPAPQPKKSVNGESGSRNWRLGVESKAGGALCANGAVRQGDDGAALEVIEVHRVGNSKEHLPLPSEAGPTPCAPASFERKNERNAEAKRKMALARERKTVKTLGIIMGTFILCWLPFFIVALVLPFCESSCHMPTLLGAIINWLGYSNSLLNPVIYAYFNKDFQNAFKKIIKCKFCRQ
Outline: as §1

muscarinic M3 receptor = molecular target: T3, muscarinic M3 receptor (Homo sapiens, UniProt P20309); experiment: Binding assay M3 (h), [3H]4-DAMP, CHO cells; conditions: read-out: M3 [%]
T3 construct: expressed in transfected cells; host or cells: CHO cells
T3 sequence (P20309 whole entry): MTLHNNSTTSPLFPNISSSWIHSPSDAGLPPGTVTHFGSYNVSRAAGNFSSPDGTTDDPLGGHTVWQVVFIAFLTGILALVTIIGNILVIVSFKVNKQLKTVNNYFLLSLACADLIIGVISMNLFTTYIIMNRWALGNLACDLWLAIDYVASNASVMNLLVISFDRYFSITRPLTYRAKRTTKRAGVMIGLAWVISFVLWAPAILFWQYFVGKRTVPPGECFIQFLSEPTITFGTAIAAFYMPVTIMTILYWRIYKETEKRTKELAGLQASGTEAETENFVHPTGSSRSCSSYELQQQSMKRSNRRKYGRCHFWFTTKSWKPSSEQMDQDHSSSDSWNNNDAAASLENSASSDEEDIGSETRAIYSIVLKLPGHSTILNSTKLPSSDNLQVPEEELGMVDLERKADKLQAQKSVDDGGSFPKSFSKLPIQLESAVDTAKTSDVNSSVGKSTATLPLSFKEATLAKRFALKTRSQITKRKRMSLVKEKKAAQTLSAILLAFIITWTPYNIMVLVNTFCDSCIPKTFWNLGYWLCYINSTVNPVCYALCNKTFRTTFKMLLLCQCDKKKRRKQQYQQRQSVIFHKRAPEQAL
Protocol: (§2) The specific ligand binding to the receptors is defined as the difference between the total binding and the nonspecific binding determined in the presence of an excess of so unlabelled ligand.
(§3) The specific Ligand binding to the receptor is defined as the difference between total and non-specific binding determined in the presence of an excess of unlabelled ligand. The compounds were tested at a concentration of 1×10^−6 M, and scintillation counting was the method of detection of ligand binding.

adrenergic α1 receptor = experiment: Binding assay α1 (non-selective), [3H]prazosin, rat cerebral cortex; conditions: percent inhibition of control specific binding; compounds tested at 1×10^−6 M
Outline: as §1

adrenergic α2C receptor = molecular target: T4, adrenergic α2C receptor (Homo sapiens, UniProt P18825); experiment: Binding assay α2C (h), [3H]RX 821002, CHO cells; parameters: expressed in transfected cells; host or cells: CHO cells; conditions: read-out: α2C [%]
T4 sequence (P18825 1-462): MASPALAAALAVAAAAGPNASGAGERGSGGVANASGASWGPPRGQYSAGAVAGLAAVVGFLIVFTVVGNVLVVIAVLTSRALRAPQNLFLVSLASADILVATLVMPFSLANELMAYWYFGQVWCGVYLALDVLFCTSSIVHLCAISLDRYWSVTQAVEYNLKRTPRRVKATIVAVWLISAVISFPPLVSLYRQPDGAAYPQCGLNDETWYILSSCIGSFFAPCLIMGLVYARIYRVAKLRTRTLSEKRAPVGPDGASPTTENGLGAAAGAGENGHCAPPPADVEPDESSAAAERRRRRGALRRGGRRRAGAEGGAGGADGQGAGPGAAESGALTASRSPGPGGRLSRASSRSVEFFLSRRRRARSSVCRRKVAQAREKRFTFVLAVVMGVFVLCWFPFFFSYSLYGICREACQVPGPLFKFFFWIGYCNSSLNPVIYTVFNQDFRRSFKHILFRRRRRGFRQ
Protocol: as §2, §3

sigma σ receptor = experiment: Binding assay σ (non-selective), [3H]DTG, rat cerebral cortex; conditions: percent inhibition of control specific binding; compounds tested at 1×10^−6 M
Protocol: as §2, §3

[5] = molecular target: T5, serotoninergic receptor 5-HT2C (Homo sapiens, UniProt P28335); experiment: Binding assay 5-HT2C (h), [3H]mesulergine, HEK-293 cells; conditions: read-out: 5-HT2C [%]
T5 construct: expressed in transfected cells; host or cells: HEK-293 cells
T5 sequence (P28335 33-458): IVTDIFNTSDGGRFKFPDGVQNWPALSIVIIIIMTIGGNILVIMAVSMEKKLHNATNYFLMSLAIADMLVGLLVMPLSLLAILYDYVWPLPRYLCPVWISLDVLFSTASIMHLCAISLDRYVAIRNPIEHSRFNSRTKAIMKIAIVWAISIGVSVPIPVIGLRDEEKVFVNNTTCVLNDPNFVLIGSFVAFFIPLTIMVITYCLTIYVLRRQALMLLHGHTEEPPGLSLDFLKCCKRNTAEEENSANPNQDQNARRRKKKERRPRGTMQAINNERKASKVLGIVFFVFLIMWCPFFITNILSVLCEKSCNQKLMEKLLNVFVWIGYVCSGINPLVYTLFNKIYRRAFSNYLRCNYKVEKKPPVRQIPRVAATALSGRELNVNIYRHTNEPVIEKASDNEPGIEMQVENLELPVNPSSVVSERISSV
Protocol: as §2, §3

[6] = molecular target: histaminergic H1 receptor (Homo sapiens, UniProt P35367); experiment: Binding assay H1 (h), [3H]pyrilamine, HEK-293 cells; parameters: expressed in transfected cells; host or cells: HEK-293 cells; conditions: read-out: H1 [%]
Chain of histaminergic H1 receptor (P35367 whole entry): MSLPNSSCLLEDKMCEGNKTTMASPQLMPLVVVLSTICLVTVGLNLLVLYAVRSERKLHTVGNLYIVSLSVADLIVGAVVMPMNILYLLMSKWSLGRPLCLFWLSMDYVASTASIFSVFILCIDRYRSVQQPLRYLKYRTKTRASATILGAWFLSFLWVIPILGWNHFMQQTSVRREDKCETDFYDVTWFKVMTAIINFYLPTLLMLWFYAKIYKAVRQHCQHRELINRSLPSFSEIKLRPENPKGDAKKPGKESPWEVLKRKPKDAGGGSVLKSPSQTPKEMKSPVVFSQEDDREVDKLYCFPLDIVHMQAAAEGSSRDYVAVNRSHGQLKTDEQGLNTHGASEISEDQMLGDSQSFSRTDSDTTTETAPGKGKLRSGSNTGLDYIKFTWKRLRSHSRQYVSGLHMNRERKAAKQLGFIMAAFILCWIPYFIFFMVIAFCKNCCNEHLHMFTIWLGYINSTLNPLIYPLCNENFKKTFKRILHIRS
Protocol: as §2, §3

[7] = molecular target: serotoninergic 5-HT2A receptor (Homo sapiens, UniProt P28223); experiment: Binding assay 5-HT2A (h), [3H]ketanserin, HEK-293 cells; parameters: expressed in transfected cells; host or cells: HEK-293 cells; conditions: read-out: 5-HT2A
Chain of serotoninergic 5-HT2A receptor (P28223 whole entry): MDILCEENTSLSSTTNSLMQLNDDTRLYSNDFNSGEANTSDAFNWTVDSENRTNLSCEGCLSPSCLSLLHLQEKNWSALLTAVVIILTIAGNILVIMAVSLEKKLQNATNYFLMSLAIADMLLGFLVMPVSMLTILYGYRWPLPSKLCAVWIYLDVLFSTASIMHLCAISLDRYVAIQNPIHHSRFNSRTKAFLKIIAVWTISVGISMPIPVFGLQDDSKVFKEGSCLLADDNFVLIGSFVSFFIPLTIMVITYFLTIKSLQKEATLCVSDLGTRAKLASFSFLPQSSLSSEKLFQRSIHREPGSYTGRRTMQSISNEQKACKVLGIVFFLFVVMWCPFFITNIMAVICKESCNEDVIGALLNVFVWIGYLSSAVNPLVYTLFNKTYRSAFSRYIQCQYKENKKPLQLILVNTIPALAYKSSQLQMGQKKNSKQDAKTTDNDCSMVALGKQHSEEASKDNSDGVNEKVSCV
Outline: as §1

Chain of dopaminergic D2 receptor (P14416 1-414 isoform P14416-2): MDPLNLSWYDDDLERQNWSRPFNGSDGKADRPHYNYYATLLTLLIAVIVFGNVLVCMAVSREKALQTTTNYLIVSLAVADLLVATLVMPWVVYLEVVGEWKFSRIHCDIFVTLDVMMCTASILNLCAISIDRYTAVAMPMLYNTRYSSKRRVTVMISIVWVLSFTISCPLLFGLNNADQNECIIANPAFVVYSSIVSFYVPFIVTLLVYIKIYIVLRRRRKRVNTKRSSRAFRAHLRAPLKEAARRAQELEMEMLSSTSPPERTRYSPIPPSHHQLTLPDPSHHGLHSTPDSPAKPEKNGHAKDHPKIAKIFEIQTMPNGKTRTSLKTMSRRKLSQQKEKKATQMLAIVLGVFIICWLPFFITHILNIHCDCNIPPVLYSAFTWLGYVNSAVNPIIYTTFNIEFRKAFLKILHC

SMILES: O=c1[nH]c2cccc(N3CCN(CCCNS(=O)(=O)c4cccc(Cl)c4)CC3)c2[nH]1 [Compound 174, 3-Chloro-N-[3-[4-(2-oxo-1,3-dihydrobenzimidazol-4-yl)piperazin-1-yl]propyl]benzenesulphonamide]
- inhibition at 1 µM (dopaminergic D2 receptor): 91%
- inhibition at 1 µM [1]: 92%
- inhibition at 1 µM (dopaminergic D3 receptor): 96%
- inhibition at 1 µM [2]: 11%
- inhibition at 1 µM [3]: 4%
- inhibition at 1 µM [4]: 98%
- inhibition at 1 µM (muscarinic M3 receptor): 15%
- α1 [%] (adrenergic α1 receptor): 86%
- inhibition at 1 µM (adrenergic α2C receptor): 55%
- σ [%] (sigma σ receptor): −16%
- inhibition at 1 µM [5]: 0%
- inhibition at 1 µM [6]: 25%
- inhibition at 1 µM [7]: -24%

SMILES: O=c1[nH]c2cccc(N3CCN(CCCNS(=O)(=O)c4cccc(F)c4)CC3)c2[nH]1 [Compound 176, 3-Fluoro-N-[3-[4-(2-oxo-1,3-dihydrobenzimidazol-4-yl)piperazin-1-yl]propyl]benzenesulphonamide]
- inhibition at 1 µM (dopaminergic D2 receptor): 89%
- inhibition at 1 µM [1]: 80%
- inhibition at 1 µM (dopaminergic D3 receptor): 95%
- inhibition at 1 µM [2]: -3%
- inhibition at 1 µM [3]: 29%
- inhibition at 1 µM [4]: 97%
- inhibition at 1 µM (muscarinic M3 receptor): 6%
- α1 [%] (adrenergic α1 receptor): 77%
- inhibition at 1 µM (adrenergic α2C receptor): 44%
- σ [%] (sigma σ receptor): −25%
- inhibition at 1 µM [5]: 9%
- inhibition at 1 µM [6]: 8%
- inhibition at 1 µM [7]: 7%

SMILES: O=S(=O)(NCCCN1CCN(c2nsc3ccccc23)CC1)c1ccc(Cl)s1 [Compound 196, N-[3-[4-(1,2-Benzothiazol-3-yl)piperazin-1-yl]propyl]-5-chloro-thiophene-2-sulphonamide]
- inhibition at 1 µM (dopaminergic D2 receptor): 98%
- inhibition at 1 µM [1]: 100%
- inhibition at 1 µM (dopaminergic D3 receptor): 97%
- inhibition at 1 µM [2]: 75%
- inhibition at 1 µM [3]: 92%
- inhibition at 1 µM [4]: 99%
- inhibition at 1 µM (muscarinic M3 receptor): 18%
- α1 [%] (adrenergic α1 receptor): 93%
- inhibition at 1 µM (adrenergic α2C receptor): 95%
- σ [%] (sigma σ receptor): 66%
- inhibition at 1 µM [5]: 89%
- inhibition at 1 µM [6]: 93%
- inhibition at 1 µM [7]: 102%

SMILES: O=S(=O)(NCCCCN1CCN(c2nsc3ccccc23)CC1)c1cccc(O)c1 [Compound 231, N-[4-[4-(1,2-Benzothiazol-3-yl)piperazin-1-yl]butyl]-3-hydroxybenzenesulphonamide]
- inhibition at 1 µM (dopaminergic D2 receptor): 99%
- inhibition at 1 µM [1]: 99%
- inhibition at 1 µM (dopaminergic D3 receptor): 97%
- inhibition at 1 µM [2]: 59%
- inhibition at 1 µM [3]: 95%
- inhibition at 1 µM [4]: 97%
- inhibition at 1 µM (muscarinic M3 receptor): 11%
- α1 [%] (adrenergic α1 receptor): 96%
- inhibition at 1 µM (adrenergic α2C receptor): 99%
- σ [%] (sigma σ receptor): 62%
- inhibition at 1 µM [5]: 87%
- inhibition at 1 µM [6]: 97%
- inhibition at 1 µM [7]: 101%

SMILES: O=S(=O)(NCCCCN1CCN(c2nsc3ccccc23)CC1)c1cccc2scnc12 [Compound 243, N-[4-[4-(1,2-Benzothiazol-3-yl)piperazin-1-yl]butyl]-1,3-benzothiazole-4-sulphonamide]
- inhibition at 1 µM (dopaminergic D2 receptor): 100%
- inhibition at 1 µM [1]: 99%
- inhibition at 1 µM (dopaminergic D3 receptor): 93%
- inhibition at 1 µM [2]: 63%
- inhibition at 1 µM [3]: 73%
- inhibition at 1 µM [4]: 98%
- inhibition at 1 µM (muscarinic M3 receptor): 10%
- α1 [%] (adrenergic α1 receptor): 97%
- inhibition at 1 µM (adrenergic α2C receptor): 96%
- σ [%] (sigma σ receptor): 29%
- inhibition at 1 µM [5]: 81%
- inhibition at 1 µM [6]: 93%
- inhibition at 1 µM [7]: 100%

SMILES: O=S(=O)(NCCCCN1CCN(c2nsc3ccccc23)CC1)c1ccc2c(c1)OCO2 [Compound 245, N-[4-[4-(1,2-Benzothiazol-3-yl)piperazin-1-yl]butyl]-1,3-benzodioxole-5-sulphonamide]
- inhibition at 1 µM (dopaminergic D2 receptor): 97%
- inhibition at 1 µM [1]: 98%
- inhibition at 1 µM (dopaminergic D3 receptor): 97%
- inhibition at 1 µM [2]: 38%
- inhibition at 1 µM [3]: 82%
- inhibition at 1 µM [4]: 99%
- inhibition at 1 µM (muscarinic M3 receptor): 25%
- α1 [%] (adrenergic α1 receptor): 96%
- inhibition at 1 µM (adrenergic α2C receptor): 101%
- σ [%] (sigma σ receptor): 52%
- inhibition at 1 µM [5]: 72%
- inhibition at 1 µM [6]: 98%
- inhibition at 1 µM [7]: 99%

SMILES: O=S(=O)(NCCCN1CCN(c2nsc3ccccc23)CC1)c1ccc(F)cc1 [Compound 248, N-[3-[4-(1,2-Benzothiazol-3-yl)piperazin-1-yl]propyl]-4-fluorobenzenesulphonamide]
- inhibition at 1 µM (dopaminergic D2 receptor): 99%
- inhibition at 1 µM [1]: 98%
- inhibition at 1 µM (dopaminergic D3 receptor): 100%
- inhibition at 1 µM [2]: 80%
- inhibition at 1 µM [3]: 98%
- inhibition at 1 µM [4]: 97%
- inhibition at 1 µM (muscarinic M3 receptor): 13%
- α1 [%] (adrenergic α1 receptor): 91%
- inhibition at 1 µM (adrenergic α2C receptor): 93%
- σ [%] (sigma σ receptor): 64%
- inhibition at 1 µM [5]: 84%
- inhibition at 1 µM [6]: 97%
- inhibition at 1 µM [7]: 101%

SMILES: O=S(=O)(NCCCN1CCN(c2nsc3ccccc23)CC1)c1ccc(F)c(F)c1 [Compound 249, N-[3-[4-(1,2-Benzothiazol-3-yl)piperazin-1-yl]propyl]-3,4-difluorobenzenesulphonamide]
- inhibition at 1 µM (dopaminergic D2 receptor): 98%
- inhibition at 1 µM [1]: 100%
- inhibition at 1 µM (dopaminergic D3 receptor): 100%
- inhibition at 1 µM [2]: 77%
- inhibition at 1 µM [3]: 101%
- inhibition at 1 µM [4]: 100%
- inhibition at 1 µM (muscarinic M3 receptor): 9%
- α1 [%] (adrenergic α1 receptor): 99%
- inhibition at 1 µM (adrenergic α2C receptor): 98%
- σ [%] (sigma σ receptor): 68%
- inhibition at 1 µM [5]: 89%
- inhibition at 1 µM [6]: 97%
- inhibition at 1 µM [7]: 101%

SMILES: O=S(=O)(NCCCN1CCN(c2nsc3ccccc23)CC1)c1ccc(Br)cc1 [Compound 252, N-[3-[4-(1,2-Benzothiazol-3-yl)piperazin-1-yl]propyl]-4-bromobenzenesulphonamide]
- inhibition at 1 µM (dopaminergic D2 receptor): 97%
- inhibition at 1 µM [1]: 99%
- inhibition at 1 µM (dopaminergic D3 receptor): 98%
- inhibition at 1 µM [2]: 94%
- inhibition at 1 µM [3]: 93%
- inhibition at 1 µM [4]: 99%
- inhibition at 1 µM (muscarinic M3 receptor): 16%
- α1 [%] (adrenergic α1 receptor): 27%
- inhibition at 1 µM (adrenergic α2C receptor): 95%
- σ [%] (sigma σ receptor): 59%
- inhibition at 1 µM [5]: 84%
- inhibition at 1 µM [6]: -77%
- inhibition at 1 µM [7]: 101%
